Reference: patent US8937091B2 (Japan Science and Technology Agency, priority 2009, dated 2015)

How the values were obtained:
[1] = system: IICR (IP3 induced calcium release) in CHO cells; test: Assay of IICR (IP3 induced calcium release)-inhibiting action; format: cell-based, Chinese hamster; details: Cricetulus griseus, CHO, CHO cells, 10 μM ATP, read-out: IICR level (percentage of inhibition); for inhibition at 10 µM: test compound 10 μmol; for inhibition at 30 µM: test compound 30 μmol; for inhibition at 100 µM: test compound 100 μmol
Outline: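 Inhibition (%) of the intracellular calcium increase triggered by 10 μM ATP, measured in CHO cells in BSS with calcium. Compound given 1 min after the buffer exchange and 2 min before ATP; values reported per compound concentration.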

[2] = system: SOCE (store operated calcium entry) in CHO cells; test: Assay of SOCE (store operated calcium entry)-inhibiting action; format: cell-based, Chinese hamster; details: Cricetulus griseus, CHO, CHO cells, thapsigargin, read-out: SOCE level (percentage of inhibition); for inhibition at 10 µM: test compound 10 μmol; for inhibition at 30 µM: test compound 30 μmol; for inhibition at 100 µM: test compound 100 μmol
Outline: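 CHO cells in calcium-free BSS received compound, then 1 μM thapsigargin 2 min later to deplete stores; after 9 min, 2 mM calcium chloride (final) added. Percent inhibition of the rise in intracellular calcium determined at various compound concentrations.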

Structure (SMILES)	inhibition at 10 µM [1]	inhibition at 30 µM [1]	inhibition at 100 µM [1]	inhibition at 10 µM [2]	inhibition at 30 µM [2]	inhibition at 100 µM [2]
CC(C)(C)N(CCC(=O)c1ccsc1)Cc1ccccc1 [Example 238, 2-(N-benzyl-t-butyl)aminoethyl-3-thiophenylketone]	10%	0%	0%	0%	0%	0%
CCN(CCC(=O)c1ccc(C)o1)Cc1ccccc1 [Example 239, 2-(N-benzylethyl)aminoethyl-5-methyl-2-furylketone]	0%	50%	80%	0%	0%	10%
Cc1ccc(C(=O)CCN(CCO)C(C)(C)C)o1 [Example 240, 2-(N-2-hydroxyethyl-t-butyl)aminoethyl-5-methyl-2-furylketone]	10%	30%	50%	0%	0%	0%
Cc1ccc(C(=O)CCN(C)Cc2ccccc2)o1 [Example 241, 2-(N-benzylmethyl)aminoethyl-5-methyl-2-furylketone]	0%	0%	70%	0%	0%	10%
CCN(CCC(=O)c1ccccn1)Cc1ccccc1 [Example 242, 2-(N-benzylethyl)aminoethyl-2-pyridylketone]	30%	80%	90%	0%	0%	0%
O=C(CCN(CCO)CCO)c1ccccn1 [Example 243, 2-(N-bis-2-hydroxyethyl)aminoethyl-2-pyridylketone]	0%	0%	50%	0%	0%	0%
CC(C)(C)N(CCO)CCC(=O)c1ccccn1 [Example 244, 2-(N-t-butyl-2-hydroxyethyl)aminoethyl-2-pyridylketone]	0%	0%	0%	0%	0%	0%
O=C(CCN(CCO)Cc1ccccc1)c1cccs1 [Example 245, 2-(N-benzyl-2-hydroxyethyl)aminoethyl-2-thiophenylketone]	0%	0%	0%	0%	0%	0%
CC(C)(C)N(CCO)CCC(=O)c1cccs1 [Example 246, 2-(N-t-butyl-2-hydroxyethyl)aminoethyl-2-thiophenylketone]	10%	0%	0%	0%	0%	0%
CCCCN(CCO)CCC(=O)c1cccs1 [Example 247, 2-(N-butyl-2-hydroxyethyl)aminoethyl-2-thiophenylketone]	10%	0%	0%	0%	0%	0%
CN(CCC(=O)c1cccnc1)Cc1ccccc1 [Example 248, 2-(N-benzylmethyl)aminoethyl-3-pyridylketone]	0%	10%	80%	0%	0%	0%
O=C(CCN(CCO)CCO)c1ccncc1 [Example 249, 2-(N-bis-2-hydroxyethyl)aminoethyl-4-pyridylketone]	0%	60%	80%	0%	0%	20%
